According to US20230072683A1, “PYRIDO-PYRIMIDIN DERIVATIVES AND PHARMACEUTICAL COMPOSITION, FOR USE IN PREVENTING OR TREATING PI3 KINASE RELATED DISEASES, COMPRISING SAME AS ACTIVE INGREDIENT” (BORYUNG PHARMACEUTICAL CO., LTD, priority 2019, published 2023):
Read-outs that look alike come from different tables or passages of the source.

Tests used:
[1] = target: PI3K-δ (PI3K(p1108/p857) (h)) (Homo sapiens, UniProt O00329); test: Evaluation of inhibitory activity against PI3K-δ (HTRF kinase assay); type: biochemical; conditions: for inhibition at 0.1 µM: read-out: EXP_VALUE(% Inhibition) PI3K-δ 0.1 μM; for inhibition at 0.01 µM: compound concentration 0.01 μM, read-out: EXP_VALUE(% Inhibition) PI3K-δ 0.01 μM
Summary of the method: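 HTRF read-out (665/620 nm ratio ×10000) used Eu-labelled anti-GST, GST-tagged GRP1 PH domain and streptavidin-allophycocyanin after EDTA/PIP3 stop.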

[2] = target: DNA-PK(h) (Homo sapiens, UniProt P78527); test: Evaluation of inhibitory activity against DNA-PK (HTRF kinase assay, GST-cMyc-p53 substrate); type: biochemical; conditions: for inhibition at 0.1 µM: read-out: EXP_VALUE(% Inhibition) DNA-PK(h) 0.1 μM; for inhibition at 0.01 µM: compound concentration 0.01 μM, read-out: EXP_VALUE(% Inhibition) DNA-PK(h) 0.01 μM
Summary of the method: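 Human DNA-PK with 50 μM GST-cMyc-p53 substrate; reaction started with Mg/ATP, run 30 min at room temperature, stopped with EDTA. Phospho-Ser15 p53 detected by HTRF (Eu anti-phospho-Ser15, d2 anti-GST), signal = 10000×(Em 665/Em 620).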

PI3K-δ (PI3K(p1108/p857) (h)), sequence (O00329 whole entry, the tested form may be a part): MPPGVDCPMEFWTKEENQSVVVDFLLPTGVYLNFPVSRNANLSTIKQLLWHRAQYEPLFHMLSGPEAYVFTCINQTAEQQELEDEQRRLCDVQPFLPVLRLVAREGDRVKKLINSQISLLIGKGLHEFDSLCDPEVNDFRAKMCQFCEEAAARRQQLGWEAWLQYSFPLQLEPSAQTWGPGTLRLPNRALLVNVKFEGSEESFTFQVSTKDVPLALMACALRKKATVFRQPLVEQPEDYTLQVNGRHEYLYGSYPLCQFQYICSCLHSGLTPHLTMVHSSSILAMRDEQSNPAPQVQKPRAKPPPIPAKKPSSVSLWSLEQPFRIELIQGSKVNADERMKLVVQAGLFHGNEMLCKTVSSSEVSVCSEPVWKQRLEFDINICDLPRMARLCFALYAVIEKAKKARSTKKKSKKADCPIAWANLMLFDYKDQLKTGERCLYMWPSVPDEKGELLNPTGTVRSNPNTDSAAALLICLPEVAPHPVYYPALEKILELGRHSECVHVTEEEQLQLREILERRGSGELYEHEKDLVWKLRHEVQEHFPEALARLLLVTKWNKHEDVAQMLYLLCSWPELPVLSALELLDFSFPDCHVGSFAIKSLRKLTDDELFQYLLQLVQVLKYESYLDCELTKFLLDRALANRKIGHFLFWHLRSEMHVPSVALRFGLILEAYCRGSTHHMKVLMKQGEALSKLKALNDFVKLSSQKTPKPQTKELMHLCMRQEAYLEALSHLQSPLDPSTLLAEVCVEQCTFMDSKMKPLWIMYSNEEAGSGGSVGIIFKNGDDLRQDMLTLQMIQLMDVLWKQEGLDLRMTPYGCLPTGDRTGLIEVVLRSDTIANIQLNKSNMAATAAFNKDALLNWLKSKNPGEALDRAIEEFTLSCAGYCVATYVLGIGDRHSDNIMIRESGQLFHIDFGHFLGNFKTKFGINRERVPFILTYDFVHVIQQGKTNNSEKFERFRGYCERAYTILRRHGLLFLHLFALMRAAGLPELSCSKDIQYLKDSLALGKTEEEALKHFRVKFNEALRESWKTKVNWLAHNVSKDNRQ
PI3K-δ (PI3K(p1108/p857) (h)), sequence (P27986 whole entry partner, the tested form may be a part): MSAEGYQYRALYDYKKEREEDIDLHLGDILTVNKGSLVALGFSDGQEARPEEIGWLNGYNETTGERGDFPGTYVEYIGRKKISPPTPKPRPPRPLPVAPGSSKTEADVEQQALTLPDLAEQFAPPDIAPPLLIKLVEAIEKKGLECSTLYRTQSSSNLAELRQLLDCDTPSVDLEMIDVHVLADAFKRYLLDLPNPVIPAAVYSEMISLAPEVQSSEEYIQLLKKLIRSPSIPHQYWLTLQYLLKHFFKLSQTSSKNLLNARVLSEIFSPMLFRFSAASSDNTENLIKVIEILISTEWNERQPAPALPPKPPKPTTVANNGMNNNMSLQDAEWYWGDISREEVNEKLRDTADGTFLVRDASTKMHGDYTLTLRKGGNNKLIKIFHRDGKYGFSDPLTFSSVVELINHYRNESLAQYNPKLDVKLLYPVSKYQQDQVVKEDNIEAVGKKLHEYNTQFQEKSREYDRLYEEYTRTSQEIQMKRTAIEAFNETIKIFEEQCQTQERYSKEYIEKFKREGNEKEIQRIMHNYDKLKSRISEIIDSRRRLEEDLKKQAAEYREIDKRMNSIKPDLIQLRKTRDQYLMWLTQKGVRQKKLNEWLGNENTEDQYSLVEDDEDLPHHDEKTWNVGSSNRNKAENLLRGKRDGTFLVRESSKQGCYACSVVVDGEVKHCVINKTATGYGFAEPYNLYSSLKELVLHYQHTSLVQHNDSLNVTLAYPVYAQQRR

Structure (SMILES)	inhibition at 0.1 µM ([1]; compound at 0.1 μM) [%]	inhibition at 0.1 µM ([2]; compound at 0.1 μM) [%]	inhibition at 0.01 µM [1] [%]	inhibition at 0.1 µM ([1]; compound concentration 0.1 μM) [%]	inhibition at 0.01 µM [2] [%]	inhibition at 0.1 µM ([2]; compound concentration 0.1 μM) [%]
C[C@H](Nc1ncnc2[nH]ccc(=O)c12)c1c(Cl)c2cccc([S@+]([O-])c3ccc(OC(F)(F)F)cc3)c2c(=O)n1-c1ccccc1 [Example 395, 4-(((S)-1-(4-chloro-1-oxo-2-phenyl-8-(((R)-4-(trifluoromethoxy)phenyl)sulfinyl)-1,2-dihydroisoquinolin-3-yl)ethyl)amino)pyrido[2,3-d]pyrimidin-5(8H)-one]	12	15				
C[C@H](Nc1ncnc2[nH]ccc(=O)c12)c1c(Cl)c2cccc(N3CCN(c4ccccn4)CC3)c2c(=O)n1-c1ccccc1 [Example 333, (S)-4-((1-(4-chloro-1-oxo-2-phenyl-8-(4-(pyridin-2-yl)piperazin-1-yl)-1,2-dihydroisoquinolin-3-yl)ethyl)amino)pyrido[2,3-d]pyrimidin-5(8H)-one]			46	79	17	62
C[C@H](Nc1ncnc2[nH]ccc(=O)c12)c1c(Cl)c2cccc(-c3ccc(N)nc3)c2c(=O)n1-c1ccccc1 [Example 172, (S)-4-((1-(8-(6-aminopyridin-3-yl)-4-chloro-1-oxo-2-phenyl-1,2-dihydroisoquinolin-3-yl)ethyl)amino)pyrido[2,3-d]pyrimidin-5(8H)-one]			53		82	
C[C@H](Nc1ncnc2[nH]ccc(=O)c12)c1c(Cl)c2cccc(-c3cnc(C(F)(F)F)nc3)c2c(=O)n1-c1ccccc1 [Example 153, (S)-4-((1-(4-chloro-1-oxo-2-phenyl-8-(2-(trifluoromethyl)pyrimidin-5-yl)-1,2-dihydroisoquinolin-3-yl)ethyl)amino)pyrido[2,3-d]pyrimidin-5(8H)-one]			77		46	
C[C@H](Nc1ncnc2[nH]ccc(=O)c12)c1c(Cl)c2cccc(Sc3ncccn3)c2c(=O)n1-c1ccccc1 [Example 423, (S)-4-((1-(4-chloro-1-oxo-2-phenyl-8-(pyrimidin-2-ylthio)-1,2-dihydroisoquinolin-3-yl)ethyl)amino)pyrido[2,3-d]pyrimidin-5(8H)-one]	20	22				
C[C@H](Nc1ncnc2[nH]ccc(=O)c12)c1c(Cl)c2cccc(C(=O)NCc3ccco3)c2c(=O)n1-c1ccccc1 [Example 279, (S)-4-chloro-N-(furan-2-ylmethyl)-1-oxo-3-(1-((5-oxo-5,8-dihydropyrido[2,3-d]pyrimidin-4-yl)amino)ethyl)-2-phenyl-1,2-dihydroisoquinoline-8-carboxamide]			105		11	
CCc1cccc2c(Cl)c([C@H](C)Nc3ncnc4[nH]ccc(=O)c34)n(-c3ccccc3)c(=O)c12 [Example 354, (S)-4-((1-(4-chloro-8-ethyl-1-oxo-2-phenyl-1,2-dihydroisoquinolin-3-yl)ethyl)amino)pyrido[2,3-d]pyrimidin-5(8H)-one]			95	106	63	94
C[C@H](Nc1ncnc2[nH]ccc(=O)c12)c1c(Cl)c2cccc(-c3ccco3)c2c(=O)n1-c1ccccc1 [Example 117, (S)-4-((1-(4-chloro-8-(furan-2-yl)-1-oxo-2-phenyl-1,2-dihydroisoquinolin-3-yl)ethyl)amino)pyrido[2,3-d]pyrimidin-5(8H)-one]			82	89	86	99
Cc1csc(-c2cccc3c(Cl)c([C@H](C)Nc4ncnc5[nH]ccc(=O)c45)n(-c4ccccc4)c(=O)c23)c1 [Example 242, (S)-4-((1-(4-chloro-8-(4-methylthiophen-2-yl)-1-oxo-2-phenyl-1,2-dihydroisoquinolin-3-yl)ethyl)amino)pyrido[2,3-d]pyrimidin-5(8H)-one]			69		65	
C[C@H](Nc1ncnc2[nH]ccc(=O)c12)c1c(Cl)c2cccc(C#Cc3cccnc3)c2c(=O)n1-c1ccccc1 [Example 307, (S)-4-((1-(4-chloro-1-oxo-2-phenyl-8-(pyridin-3-ylethynyl)-1,2-dihydroisoquinolin-3-yl)ethyl)amino)pyrido[2,3-d]pyrimidin-5(8H)-one]			83	114	80	95
C[C@H](Nc1ncnc2[nH]ccc(=O)c12)c1c(Cl)c2cccc(-c3ccc(OC(F)(F)F)nc3)c2c(=O)n1-c1ccccc1 [Example 223, (S)-4-((1-(4-chloro-1-oxo-2-phenyl-8-(6-(trifluoromethoxy)pyridin-3-yl)-1,2-dihydroisoquinolin-3-yl)ethyl)amino)pyrido[2,3-d]pyrimidin-5(8H)-one]			68		34	
Cc1nc2cc(-c3cccc4c(Cl)c([C@H](C)Nc5ncnc6[nH]ccc(=O)c56)n(-c5ccccc5)c(=O)c34)ccc2[nH]1 [Example 135, (S)-4-((1-(4-chloro-8-(2-methyl-1H-benzo[d]imidazol-5-yl)-1-oxo-2-phenyl-1,2-dihydroisoquinolin-3-yl)ethyl)amino)pyrido[2,3-d]pyrimidin-5(8H)-one]			78	97	85	100
CC(C)[S@@](=N)(=O)c1cccc2c(Cl)c([C@H](C)Nc3ncnc4[nH]ccc(=O)c34)n(-c3ccccc3)c(=O)c12 [Example 410, 4-(((S)-1-(4-chloro-1-oxo-2-phenyl-8-((R)-propan-2-ylsulfonimidoyl)-1,2-dihydroisoquinolin-3-yl)ethyl)amino)pyrido[2,3-d]pyrimidin-5(8H)-one]	14	23				
C[C@H](Nc1ncnc2[nH]ccc(=O)c12)c1c(Cl)c2cccc([S+]([O-])c3ccccn3)c2c(=O)n1-c1ccccc1 (stereo partly drawn) [Example 413, 4-(((1S)-1-(4-chloro-1-oxo-2-phenyl-8-(pyridin-2-ylsulfinyl)-1,2-dihydroisoquinolin-3-yl)ethyl)amino)pyrido[2,3-d]pyrimidin-5(8H)-one]	16	30				
C[C@H](Nc1ncnc2[nH]ccc(=O)c12)c1c(Cl)c2cccc(-c3cc(F)cc(F)c3)c2c(=O)n1-c1ccccc1 [Example 124, (S)-4-((1-(4-chloro-8-(3,5-difluorophenyl)-1-oxo-2-phenyl-1,2-dihydroisoquinolin-3-yl)ethyl)amino)pyrido[2,3-d]pyrimidin-5(8H)-one]			83	99	44	86
C[C@H](Nc1ncnc2[nH]ccc(=O)c12)c1c(Cl)c2cccc(-c3ncc(F)cn3)c2c(=O)n1-c1ccccc1 [Example 53, (S)-4-((1-(4-chloro-8-(5-fluoropyrimidin-2-yl)-1-oxo-2-phenyl-1,2-dihydroisoquinolin-3-yl)ethyl)amino)pyrido[2,3-d]pyrimidin-5(8H)-one]			11		-3	
C[C@H](Nc1ncnc2[nH]ccc(=O)c12)c1c(Cl)c2cccc(-c3ccc(C(=O)O)nc3)c2c(=O)n1-c1ccccc1 [Example 47, (S)-5-(4-chloro-1-oxo-3-(1-((5-oxo-5,8-dihydropyrido[2,3-d]pyrimidin-4-yl)amino)ethyl)-2-phenyl-1,2-dihydroisoquinolin-8-yl)picolinic acid]			86		48	
C[C@H](Nc1ncnc2[nH]ccc(=O)c12)c1c(Cl)c2cccc(NC(=O)c3ccccc3)c2c(=O)n1-c1ccccc1 [Example 299, (S)—N-(4-chloro-1-oxo-3-(1-((5-oxo-5,8-dihydropyrido[2,3-d]pyrimidin-4-yl)amino)ethyl)-2-phenyl-1,2-dihydroisoquinolin-8-yl)benzamide]			13		17	
COc1cc(-c2cccc3c(Cl)c([C@H](C)Nc4ncnc5c4c(=O)ccn5-c4ccnc(OC)c4)n(-c4ccccc4)c(=O)c23)ccn1 [Example 149, (S)-4-((1-(4-chloro-8-(2-methoxypyridin-4-yl)-1-oxo-2-phenyl-1,2-dihydroisoquinolin-3-yl)ethyl)amino)-8-(2-methoxypyridin-4-yl)pyrido[2,3-d]pyrimidin-5(8H)-one]			2		7	
C[C@H](Nc1ncnc2[nH]ccc(=O)c12)c1c(Cl)c2cccc(-c3ccc4ncncc4c3)c2c(=O)n1-c1ccccc1 [Example 32, (S)-4-((1-(4-chloro-1-oxo-2-phenyl-8-(quinazolin-6-yl)-1,2-dihydroisoquinolin-3-yl)ethyl)amino)pyrido[2,3-d]pyrimidin-5(8H)-one]			96		75	
CC(C)Oc1ccc(-c2cccc3c(Cl)c([C@H](C)Nc4ncnc5[nH]ccc(=O)c45)n(-c4ccccc4)c(=O)c23)cn1 [Example 101, (S)-4-((1-(4-chloro-8-(6-isopropoxypyridin-3-yl)-1-oxo-2-phenyl-1,2-dihydroisoquinolin-3-yl)ethyl)amino)pyrido[2,3-d]pyrimidin-5(8H)-one]			90	102	68	94
